From US7795286B2 (L'Oreal, priority 2004, dated 2010)

System: keratinocytes
Assay: Active photoprotection towards UVA-induced oxidative stress on keratinocytes (DCFH-DA fluorescent probe)
Type: cell-based
Details: for % of fluorescence relative to the control cells exposed to UVA, TEST 1 / % of fluorescence relative to the control cells exposed to UVA, TEST 2 / % of fluorescence relative to the control cells exposed to UVA, TEST 3 / % of fluorescence relative to the control cells exposed to UVA, Mean: 24 h pre-incubation; for % of fluorescence relative to the control cells exposed to UVA, TEST 1 / % of fluorescence relative to the control cells exposed to UVA, TEST 2 / % of fluorescence relative to the control cells exposed to UVA, TEST 3: DCF fluorescence after UVA; for % of fluorescence relative to the control cells exposed to UVA, Mean: mean of 3 tests
Experimental: The technique for evaluating the photo-protection is performed according to a well-known method (J. of Photochemistry and Photobiology B: Biology 57 (2000) 102-112 TOBI et al: Glutathione modulates the level of free radicals produced in UVA irradiated cells). This technique uses a fluorescent probe as a marker of the global intracellular oxidative stress, 2′,7′-dichlorofluoresceine diacetate (DCFH-DA).
The use of DCFH-DA as an oxidative stress marker is based on its physicochemical properties. It is a non-ionic apolar molecule capable of diffusing across cell membranes. Once inside the cell, DCFH-DA is hydrolysed by intracellular esterases to a non-fluorescent compound: DCFH or 2,7-dichlorofluoresceine. In the presence of activated oxygen species, DCFH is rapidly oxidized to a highly fluorescent compound: DCF or 2,7-dichlorofluoresceine.
At confluence, the keratinocytes are incubated in the presence of the compound of Example 1 for 24 hours at 37° C., 5% CO2, in the culture medium, according to a dose effect (3 concentrations). • 2. Incorporation of DCFH-DA
The keratinocytes, pretreated with the test compound, are rinsed and then incubated in the presence of DCFH-DA in the dark. • 3. Exposure to UVA
After this incubation, the DCFH-DA solution is removed and the cells are then exposed to UVA.
Comment: an unexposed control plate is kept in darkness at room temperature.
The fluorescence of the DCF is evaluated immediately after the exposure to UVA, by spectro-fluorimetry (excitation: 480 nm; emission: 530 nm). • 5. Results:
The results are expressed in Table 1 below, as a % of fluorescence relative to the control cells exposed to UVA.
The test described in Example 6 above was performed under the same conditions on R-2-oxothiazolidine-4-carboxylic acid (Compound A) and on an alkyl derivative thereof, described in patent U.S. Pat. No. 6,004,543 (Compound B).

`CCOC(=O)C1CSC(=O)N1` (stereo not drawn) [Compound B, reference compound] was tested, and the “Measurement of the intracellular Red/Ox balance: % reduction in the fluorescence of the DCFH probe” value (at 7 mM, with dose effect) was 37% at 7 mM with dose effect.
In the case of `C[Si](C)(C)COC(=O)[C@@H]1CSC(=O)N1` [Example 1], the “% of fluorescence relative to the control cells exposed to UVA, TEST 1” value (100 μM) is reported as 95%, the “% of fluorescence relative to the control cells exposed to UVA, TEST 2” value (100 μM) is reported as 81% and the “% of fluorescence relative to the control cells exposed to UVA, TEST 3” value (100 μM) is reported as 75%. For the same compound, the “% of fluorescence relative to the control cells exposed to UVA, Mean” value (100 μM) was 84%, the “% of fluorescence relative to the control cells exposed to UVA, TEST 1” value (250 μM) was 82% and the “% of fluorescence relative to the control cells exposed to UVA, TEST 2” value (250 μM) was 71%. The “% of fluorescence relative to the control cells exposed to UVA, TEST 3” value (250 μM) was 70%, the “% of fluorescence relative to the control cells exposed to UVA, Mean” value (250 μM) was 74% and the “% of fluorescence relative to the control cells exposed to UVA, TEST 1” value (500 μM) was 75%. For the same compound, the “% of fluorescence relative to the control cells exposed to UVA, TEST 2” value (500 μM) was 70%, the “% of fluorescence relative to the control cells exposed to UVA, TEST 3” value (500 μM) was 58% and the “% of fluorescence relative to the control cells exposed to UVA, Mean” value (500 μM) was 68%. For the same compound, the “Measurement of the intracellular Red/Ox balance: % reduction in the fluorescence of the DCFH probe” value (at 500 μM, with dose effect) was “approximately 32%”.
With `O=C1N[C@H](C(=O)O)CS1` [Compound A, R-2-oxothiazolidine-4-carboxylic acid, reference compound] the “Measurement of the intracellular Red/Ox balance: % reduction in the fluorescence of the DCFH probe” value (at 5 mM) was 16% at 5 mM.
